Assay results from patent publication US20080280862A1, “Methods, compositions, and kits for the treatment of pain” (priority 2007, published 2008).

How the values were obtained:
TNFα = TNFα secretion by human white blood cells stimulated with PMA/ionomycin, synergy score; format: cell-based; design: key: S = Σ Idata(Idata−ILoewe) × ln dilution factors; volume over Loewe additivity; settings: PBMC stimulated with PMA/Ionomycin
Experimental: A 100 μl suspension of diluted human white blood cells contained within each well of a polystyrene 384-well plate (NalgeNunc) was stimulated to secrete TNFα by treatment with a final concentration of 10 ng/mL phorbol 12-myristate 13-acetate (Sigma, P-1585) and 750 ng/mL ionomycin (Sigma, I-0634). Various concentrations of each test compound were added at the time of stimulation. After 16-18 hours of incubation at 37° C. in a humidified incubator, the plate was centrifuged and the supernatant transferred to a white opaque polystyrene 384-well plate (NalgeNunc, Maxisorb) coated with an anti-TNFα antibody (PharMingen, #551220). After a two-hour incubation, the plate was washed (Tecan PowerWasher 384) with PBS containing 0.1% Tween 20 and incubated for an additional one hour with another anti-TNFα antibody that was biotin labeled (PharMingen, #554511) and HRP coupled to strepavidin (PharMingen, #13047E). After the plate was washed with 0.1% Tween 20/PBS, an HRP-luminescent substrate was added to each well and light intensity measured using a LJL Analyst plate luminometer.
The synergy scores calculated for the various combinations of compounds set forth in Table 3 was calculated by the formula S=log fX log fYΣIdata(Idata−ILoewe), summed over all non-single-agent concentration pairs, and where log fX,Y are the natural logarithm of the dilution factors used for each single agent. This effectively calculates a volume between the measured and Loewe additive response surfaces, weighted towards high inhibition and corrected for varying dilution factors.

[1] = system: carrageenan-induced pain model in rats; assay: Carrageenan pain model, mechanical allodynia by Von Frey filaments; format: in vivo, Sprague-Dawley rats; settings: for Mean change from baseline ± SEM: 25 mg/kg; for mean change from baseline: Table 4, 25 mg/kg ip
Experimental: The carrageenan model is a fast, reliable model used to assess the ability of analgesics to block inflammatory pain. The analgesic effects of test article combinations on pain generation are assayed using the carrageenan-induced pain model in rats. Adult male Sprague-Dawley rats are administered study drugs intraperitoneally (vehicle, tricyclic compound (TCA), steroid or TCA/Steroid test article combinations) once daily for 2 days (day −2 and day −1) and 30 minutes prior to the carrageenan injection on day 0 (time=0). For the carrageenan injection, animals are lightly anesthetized and 0.1 ml of 2% carrageenan is injected into the plantar surface of the right hind paw. The positive control diclofenac at a dose of 25 mg/kg is administered intraperitoneally immediately before the carrageenan injection. Paw volumes (right and left) are measured using a plathysmometer before drug administration on day −2 and serve as a baseline measurement. The paw volumes are measured again two hours post carrageenan injection. The degree of mechanical allodynia is measured by a blinded observer using Von Frey filaments applied to the plantar surface of the hind paws in an increasing numerical order. Each filament increases the force applied on the paw. The filaments are applied until animal paw withdrawal is achieved. This procedure is carried out before drug administration (day −2), on day −1 and on day 0 at time=0, 20, 40, 60, 80 and 120 minutes post-carrageenan. The force (expressed in grams) required for paw withdrawal after carrageenan injection is subtracted from the force required for paw withdrawal before carrageenan injection. Results are expressed as mean change from baseline across five timepoints post carrageenan injection in Table 4.
For a synergy calculation, experimental data from the carrageenan study are fitted to a median-effect model and used to calculate the parameters' median-effect dose (Dm), slope (m), correlation coefficient (r), combination index (CI) and dose-reduction index (DRI). In addition, the probability of pain inhibition occurring after single-component (nortriptyline) versus the combination drug treatments are calculated from the negative change from baseline data using a Bayesian sensitivity analysis. The likelihood of pain inhibition is characterized for nortriptyline administered alone (1 mg/kg or 3 mg/kg) versus the fixed-dose combination treatments [prednisolone (0.3 mg/kg):nortriptyline (1 mg/kg) or prednisolone (1 mg/kg):nortriptyline (3 mg/kg)] each evaluated at 60 and 80 minutes for analgesic effect.
In another example, the effects of test article combinations on pain inhibition were assayed using the carrageenan model in rodents. Desipramine was tested alone and in combination at 0.3, 1, and 3 mg/kg and prednisolone was tested similarly at 0.3, 1 and 3 mg/kg IP.

[2] = system: formalin-induced pain model in rats; assay: Formalin pain model, nociceptive behaviors; format: in vivo, Sprague-Dawley rats; settings: 20 mg/kg
Experimental: The formalin model is a fast, reliable model used to assess potential analgesics ability to block inflammatory pain. The analgesic effects of test article combinations on pain generation are assayed using the formalin-induced pain model in rats. Adult male Sprague-Dawley rats are administered intraperitoneally study drugs (vehicle, TCA, steroid or TCA/Steroid test article combinations) once daily for 2 days (day −2 and day −1) and 30 minutes prior to the formalin injection day on day 0 (time=0). […] To elicit a pain response, dilute formalin (2% in saline) is injected under the skin of the plantar surface of the right hindpaw. The animal is placed in an observation chamber. The pain response is a characteristic biphasic response pattern of nociceptive behaviors (lifting, licking, and biting of the injected paw). Two distinct periods of nociceptive behaviors/activity are observed and recorded: an early phase (phase I) lasting the first 5-10 min and a late phase (phase II) lasting 20-40 min after the injection of formalin. One hour of data is collected (time spent displaying pain behavior) by a blinded observer using a stopwatch. Results are expressed as the number of pain behaviors per 5 minute periods (Table 8 and Table 9).

[3] = combination with Hydrocortisone

Clc1ccc2c(c1)C(N1CCNCC1)=Nc1ccccc1O2 [Amoxapine]
Synergy Score based on TNF-α inhibition (TNFα; combination with Betamethasone): 0.68
Synergy Score based on TNF-α inhibition (TNFα; combination with Budesonide): 0.63
Synergy Score based on TNF-α inhibition (TNFα; combination with Dexamethasone): 1.3
Synergy Score based on TNF-α inhibition (TNFα; [3]): 0.56
Synergy Score based on TNF-α inhibition (TNFα; combination with Prednisolone): 1.1
Synergy Score based on TNF-α inhibition (TNFα; combination with Triamcinolone): 0.37

CN(C)CCCN1c2ccccc2CCc2ccc(Cl)cc21 [Clomipramine]
Synergy Score based on TNF-α inhibition (TNFα; combination with Betamethasone): 0.78
Synergy Score based on TNF-α inhibition (TNFα; combination with Budesonide): 0.61
Synergy Score based on TNF-α inhibition (TNFα; combination with Clobetasol): 0.65
Synergy Score based on TNF-α inhibition (TNFα; combination with Dexamethasone): 1.2
Synergy Score based on TNF-α inhibition (TNFα; combination with Diflorasone): 0.55
Synergy Score based on TNF-α inhibition (TNFα; [3]): 0.6
Synergy Score based on TNF-α inhibition (TNFα; combination with Prednisolone): 0.82
Synergy Score based on TNF-α inhibition (TNFα; combination with Triamcinolone): 0.5

CN(C)CCC=C1c2ccccc2C=Cc2ccccc21 [Cyclobenzaprine]
Synergy Score based on TNF-α inhibition (TNFα; combination with Betamethasone): 0.29
Synergy Score based on TNF-α inhibition (TNFα; combination with Budesonide): 0.7
Synergy Score based on TNF-α inhibition (TNFα; combination with Dexamethasone): 1.2
Synergy Score based on TNF-α inhibition (TNFα; [3]): 0.21
Synergy Score based on TNF-α inhibition (TNFα; combination with Prednisolone): 0.36
Synergy Score based on TNF-α inhibition (TNFα; combination with Triamcinolone): 0.37

O=C(O)Cc1ccccc1Nc1c(Cl)cccc1Cl [Diclofenac]
Mean AUC ± SEM ([1]; 25 mg/Kg, AUC from 20 minutes through 120 minutes following carrageenan injection): 5332 ± 772.96
Mean change from baseline ± SEM ([1]; Experiment One, 20 minutes): -17.50 ± 11.24 g
Mean change from baseline ± SEM ([1]; Experiment One, 40 minutes): -74.70 ± 13.27 g
Mean change from baseline ± SEM ([1]; Experiment One, 60 minutes): -146.70 ± 16.73 g
Mean change from baseline ± SEM ([1]; Experiment One, 80 minutes): -203.30 ± 15.02 g
Mean change from baseline ± SEM ([1]; Experiment One, 120 minutes): -259.90 ± 15.14 g
Mean change from baseline ± SEM ([1]; Experiment Two, first set of rows, 20 minutes): 5.91 ± 7.99 g
Mean change from baseline ± SEM ([1]; Experiment Two, first set of rows, 40 minutes): 3.89 ± 5.82 g
Mean change from baseline ± SEM ([1]; Experiment Two, first set of rows, 60 minutes): 5.94 ± 10.01 g
Mean change from baseline ± SEM ([1]; Experiment Two, first set of rows, 80 minutes): -2.47 ± 9.56 g
Mean change from baseline ± SEM ([1]; Experiment Two, first set of rows, 120 minutes): -11.26 ± 8.92 g
Mean change from baseline ± SEM ([1]; Experiment Two, second set of rows, 20 minutes): -8.50 ± 5.56 g
Mean change from baseline ± SEM ([1]; Experiment Two, second set of rows, 40 minutes): -12.75 ± 6.22 g
Mean change from baseline ± SEM ([1]; Experiment Two, second set of rows, 60 minutes): -8.50 ± 8.50 g
Mean change from baseline ± SEM ([1]; Experiment Two, second set of rows, 80 minutes): -12.75 ± 6.22 g
Mean change from baseline ± SEM ([1]; Experiment Two, second set of rows, 120 minutes): -17.75 ± 6.74 g
mean change from baseline ([1]; 20 minutes post carrageenan): −17.50 ± 11.24 grams
mean change from baseline ([1]; 40 minutes post carrageenan): −74.70 ± 13.27 grams
mean change from baseline ([1]; 60 minutes post carrageenan): −146.70 ± 16.73 grams
mean change from baseline ([1]; 80 minutes post carrageenan): −203.30 ± 15.02 grams
mean change from baseline ([1]; 120 minutes post carrageenan): −259.90 ± 15.14 grams

CN1CC[C@]23c4c5ccc(O)c4O[C@H]2[C@@H](O)C=C[C@H]3[C@H]1C5 [Morphine]
Mean number of behaviors per 5 minute block ([2]; Experiment One, amitriptyline, 5 minutes): 116.0 ± 39.2
Mean number of behaviors per 5 minute block ([2]; Experiment One, amitriptyline, 10 minutes): 19.0 ± 13.7
Mean number of behaviors per 5 minute block ([2]; Experiment One, amitriptyline, 15 minutes): 17.0 ± 10.4
Mean number of behaviors per 5 minute block ([2]; Experiment One, amitriptyline, 20 minutes): 53.0 ± 32.2
Mean number of behaviors per 5 minute block ([2]; Experiment One, amitriptyline, 25 minutes): 77.0 ± 40.2
Mean number of behaviors per 5 minute block ([2]; Experiment One, amitriptyline, 30 minutes): 65.0 ± 36.2
Mean number of behaviors per 5 minute block ([2]; Experiment One, amitriptyline, 35 minutes): 66.0 ± 34.4
Mean number of behaviors per 5 minute block ([2]; Experiment One, amitriptyline, 40 minutes): 58.0 ± 33.3
Mean number of behaviors per 5 minute block ([2]; Experiment One, amitriptyline, 45 minutes): 33.0 ± 22.6
Mean number of behaviors per 5 minute block ([2]; Experiment One, amitriptyline, 50 minutes): 11.0 ± 10.3
Mean number of behaviors per 5 minute block ([2]; Experiment One, amitriptyline, 55 minutes): 2.0 ± 1.1
Mean number of behaviors per 5 minute block ([2]; Experiment One, amitriptyline, 60 minutes): 1.0 ± 0.6
Mean number of behaviors per 5 minute block ([2]; Experiment One, nortriptyline, 5 minutes): 120.0 ± 25.2
Mean number of behaviors per 5 minute block ([2]; Experiment One, nortriptyline, 10 minutes): 7.0 ± 5.3
Mean number of behaviors per 5 minute block ([2]; Experiment One, nortriptyline, 15 minutes): 2.0 ± 1.5
Mean number of behaviors per 5 minute block ([2]; Experiment One, nortriptyline, 20 minutes): 2.0 ± 1.1
Mean number of behaviors per 5 minute block ([2]; Experiment One, nortriptyline, 25 minutes): 1.0 ± 0.4
Mean number of behaviors per 5 minute block ([2]; Experiment One, nortriptyline, 30 minutes): 0.0 ± 0.0
Mean number of behaviors per 5 minute block ([2]; Experiment One, nortriptyline, 35 minutes): 0.0 ± 0.4
Mean number of behaviors per 5 minute block ([2]; Experiment One, nortriptyline, 40 minutes): 1.0 ± 1.2
Mean number of behaviors per 5 minute block ([2]; Experiment One, nortriptyline, 45 minutes): 20.0 ± 20.0
Mean number of behaviors per 5 minute block ([2]; Experiment One, nortriptyline, 50 minutes): 29.0 ± 28.6
Mean number of behaviors per 5 minute block ([2]; Experiment One, nortriptyline, 55 minutes): 29.0 ± 29.1
Mean number of behaviors per 5 minute block ([2]; Experiment One, nortriptyline, 60 minutes): 55.0 ± 36.4
Mean number of behaviors per 5 minute block ([2]; Experiment Two, 5 minutes): 64.0 ± 35.3
Mean number of behaviors per 5 minute block ([2]; Experiment Two, 10 minutes): 3.0 ± 3.0
Mean number of behaviors per 5 minute block ([2]; Experiment Two, 15 minutes): 0.0 ± 0.0
Mean number of behaviors per 5 minute block ([2]; Experiment Two, 20 minutes): 0.0 ± 0.4
Mean number of behaviors per 5 minute block ([2]; Experiment Two, 25 minutes): 0.0 ± 0.3
Mean number of behaviors per 5 minute block ([2]; Experiment Two, 30 minutes): 1.0 ± 1.1
Mean number of behaviors per 5 minute block ([2]; Experiment Two, 35 minutes): 1.0 ± 0.9
Mean number of behaviors per 5 minute block ([2]; Experiment Two, 40 minutes): 0.0 ± 0.1
Mean number of behaviors per 5 minute block ([2]; Experiment Two, 45 minutes): 8.0 ± 8.2
Mean number of behaviors per 5 minute block ([2]; Experiment Two, 50 minutes): 25.0 ± 16.4
Mean number of behaviors per 5 minute block ([2]; Experiment Two, 55 minutes): 56.0 ± 35.9
Mean number of behaviors per 5 minute block ([2]; Experiment Two, 60 minutes): 51.0 ± 36.9
